Patent US20170319570A1, “Treatment of Multiple Sclerosis With Combination of Laquinimod and Dimethyl Fumarate” (Teva Pharmaceutical Industries, Ltd., priority 2012, published 2017)

Experiments:
RRMS patients = conditions: Phase 2B trial; cited from earlier work
MOG peptide induced EAE = conditions: cited from earlier work
MOG-induced EAE = assay: MOG-induced EAE, laquinimod alone or with add on DMF (Example 1A); assay type: in vivo, mouse; conditions: oral QD
MOG induced EAE = assay: MOG-induced EAE, laquinimod in combination with DMF (Example 1B); assay type: in vivo, mouse; conditions: Day 1 to 30, dead or moribund/total
[1] = in vivo; cited from earlier work

| Structure (SMILES) | annualized relapse rate (RRMS patients) | new gadolinium enhancing lesions, T1 and T2 lesions (RRMS patients) | plasma levels of IL-10 (MOG peptide induced EAE; MOG peptide induced EAE) | glial inflammation (MOG peptide induced EAE; during MOG peptide induced EAE) | effectiveness on disease severity (MOG-induced EAE) | Mortality (MOG induced EAE; Group 2: laquinimod 5 mg/kg/day gavage qd) | Mortality (MOG induced EAE; Group 3: laquinimod 10 mg/kg/day gavage qd) | Mortality (MOG induced EAE; Group 4: laquinimod 25 mg/kg/day gavage qd) | effectiveness on disease severity (MOG-induced EAE; 0.06 mg/kg laquinimod alone) | oral bioavailability [1] |
| --- | --- | --- | --- | --- | --- | --- | --- | --- | --- | --- |
| COC(=O)/C=C/C(=O)OC [DMF, Dimethyl (E)-but-2-Enedioate] | non-significant decrease | significant decreases | increased | reduced | moderately effective |  |  |  |  |  |
| CCN(C(=O)c1c(O)c2c(Cl)cccc2n(C)c1=O)c1ccccc1 [Laquinimod] |  |  |  |  |  | 0/15 | 0/15 | 0/15 | moderately effective | high |
